# What was measured:
# 5-HT2A receptor = 5-HT2A receptor (Homo sapiens, UniProt P28223); conditions: background statement; cited from earlier work
# [1] = Lurasidone adjunctive to lithium or divalproex for bipolar I depression, 6-week study, safety and tolerability; assay type: in vivo, human; conditions: adjunctive to Li/VPA
# Protocol: Therapeutic blood levels of Li or VPA had to be maintained for ≧28 days prior to randomization.
# The total duration of treatment was 6 weeks.
# Patients were required to continue treatment with lithium or divalproex during the screening period and throughout the study. Dose adjustments of lithium or divalproex were permitted during the trial to ensure that trough serum levels remained within the protocol-specified range (0.6 mEq/L to 1.2 mEq/L for lithium or […] to 125 μg/mL for divalproex).
# This study also evaluated the safety and tolerability of using lurasidone in combination with lithium or divalproex. Patients were evaluated for: (1) Adverse effects, discontinuation due to adverse effects (AEs), and serious adverse effects (SAEs), (2) Movement disorders as assessed by Abnormal Involuntary Movement Scale (AIMS), Barnes Akathisia Rating Scale (BARS), and the Simpson-Angus Scale (SAS), and (3) Weight, laboratory measures, vital signs, and electrocardiograms (ECGs).
# [2] = biological target: T1, serotonin 5-HT1A receptor (Homo sapiens, UniProt P08908); experiment: Functional assay, effect on receptor function; assay type: biochemical
# T1 sequence (P08908 1-422): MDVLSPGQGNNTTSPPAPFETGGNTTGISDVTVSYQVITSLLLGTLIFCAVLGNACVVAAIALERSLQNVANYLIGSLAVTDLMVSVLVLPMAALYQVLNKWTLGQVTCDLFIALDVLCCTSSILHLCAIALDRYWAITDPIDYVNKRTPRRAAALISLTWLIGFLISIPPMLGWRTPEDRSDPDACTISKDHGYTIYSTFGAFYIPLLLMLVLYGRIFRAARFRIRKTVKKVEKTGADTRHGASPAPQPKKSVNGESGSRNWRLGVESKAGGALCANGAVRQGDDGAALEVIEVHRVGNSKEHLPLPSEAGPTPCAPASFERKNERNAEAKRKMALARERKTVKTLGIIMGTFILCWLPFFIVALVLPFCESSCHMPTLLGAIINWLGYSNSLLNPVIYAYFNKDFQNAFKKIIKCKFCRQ
# Protocol: (§1) In vitro binding studies were carried out according to the procedures well-established in the art. Membranes from male Wistar rat brain tissues or cells expressing cloned human receptors were prepared under assay conditions summarized in Ishibashi, T. et al. (Journal of Pharmacology and Experimental Therapeutics (2010)). Functional assays were carried out to analyze the binding affinity and effect on receptor function for dopamine D1-D4 receptor subtypes, serotonin 5-HT1A, 5-HT2A, 5-HT2C, 5-HT6, 5-HT7, norepinephrine α1, α2A, α2C, histamine H1 receptors, and muscarinic M1 receptors.
# [3] = biological target: Norepinephrine α1 receptor; experiment: In vitro receptor binding, norepinephrine α1 (rat)
# [4] = Short-term (6-week) and long-term (6-month, 12-month) metabolic safety study; assay type: in vivo, human
# Protocol: The mean change in weight and BMI was assessed at the LOCF endpoint for the short-term study. […] FIG. 6 summarizes the mean change in weight and BMI in observed cases after 6 months and 12 months of treatment
# The median change in total cholesterol and triglycerides, and glucose and HbA1c, was also assessed for both the short-term and long-term studies.
# [5] = biological target: T2, Serotonin 5-HT2c receptor (Sus scrofa, UniProt K7GSR7); assay type: binding, porcine
# T2 sequence (K7GSR7 1-457): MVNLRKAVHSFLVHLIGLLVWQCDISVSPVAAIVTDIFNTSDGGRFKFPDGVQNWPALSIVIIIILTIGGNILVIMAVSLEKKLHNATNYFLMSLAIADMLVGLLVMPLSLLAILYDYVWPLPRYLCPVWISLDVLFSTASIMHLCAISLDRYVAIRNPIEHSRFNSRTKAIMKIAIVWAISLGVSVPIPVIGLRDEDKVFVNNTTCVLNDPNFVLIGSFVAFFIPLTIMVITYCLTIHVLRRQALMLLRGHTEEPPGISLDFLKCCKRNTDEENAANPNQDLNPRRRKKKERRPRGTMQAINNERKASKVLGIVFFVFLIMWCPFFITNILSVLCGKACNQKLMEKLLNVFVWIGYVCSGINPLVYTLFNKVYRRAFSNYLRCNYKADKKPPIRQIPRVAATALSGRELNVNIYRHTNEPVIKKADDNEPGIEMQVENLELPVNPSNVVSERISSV
# Protocol: as §1
# Dopamine D3 receptor = biological target: T3, Dopamine D3 receptor (Homo sapiens, UniProt P35462); experiment: In vitro receptor binding, dopamine D3; conditions: cloned cells expressing human receptors; read-out: Binding Affinities (Ki; nM) Dopamine D3
# T3 construct: expressed in transfected cells
# T3 sequence (P35462 whole entry): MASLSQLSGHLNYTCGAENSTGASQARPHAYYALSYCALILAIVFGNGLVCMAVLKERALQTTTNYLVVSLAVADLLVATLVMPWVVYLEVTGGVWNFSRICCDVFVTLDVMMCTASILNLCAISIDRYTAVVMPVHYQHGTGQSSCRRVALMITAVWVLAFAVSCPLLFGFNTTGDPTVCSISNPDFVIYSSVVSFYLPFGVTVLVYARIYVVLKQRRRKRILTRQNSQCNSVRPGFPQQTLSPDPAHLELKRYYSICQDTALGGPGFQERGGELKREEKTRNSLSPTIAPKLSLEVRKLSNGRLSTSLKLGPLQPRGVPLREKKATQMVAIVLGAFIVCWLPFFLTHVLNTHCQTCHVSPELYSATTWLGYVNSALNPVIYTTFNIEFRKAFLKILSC
# [6] = Lurasidone monotherapy for bipolar I depression, 6-week study, safety and tolerability; assay type: in vivo, human
# dopamine D2 receptor = dopamine D2 receptor (Homo sapiens, UniProt P14416); conditions: background statement; cited from earlier work
# Chain of dopamine D2 receptor (P14416 whole entry): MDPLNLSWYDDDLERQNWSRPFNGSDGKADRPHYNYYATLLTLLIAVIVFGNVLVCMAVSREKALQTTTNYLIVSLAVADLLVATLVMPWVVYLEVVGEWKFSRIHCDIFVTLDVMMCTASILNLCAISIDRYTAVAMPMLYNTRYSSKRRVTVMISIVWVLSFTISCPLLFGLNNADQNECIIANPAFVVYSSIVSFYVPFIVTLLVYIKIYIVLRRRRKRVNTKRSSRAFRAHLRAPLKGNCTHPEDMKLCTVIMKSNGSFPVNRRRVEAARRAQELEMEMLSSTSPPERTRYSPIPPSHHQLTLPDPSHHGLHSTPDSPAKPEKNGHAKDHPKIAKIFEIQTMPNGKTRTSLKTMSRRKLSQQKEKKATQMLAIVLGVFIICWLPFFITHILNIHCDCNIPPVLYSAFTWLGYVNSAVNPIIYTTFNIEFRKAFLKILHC
# [7] = Lurasidone 20-60 mg, listed as LUR
# [8] = Lurasidone 80-120 mg, listed as LUR
# Chain of 5-HT2A receptor (P28223 whole entry): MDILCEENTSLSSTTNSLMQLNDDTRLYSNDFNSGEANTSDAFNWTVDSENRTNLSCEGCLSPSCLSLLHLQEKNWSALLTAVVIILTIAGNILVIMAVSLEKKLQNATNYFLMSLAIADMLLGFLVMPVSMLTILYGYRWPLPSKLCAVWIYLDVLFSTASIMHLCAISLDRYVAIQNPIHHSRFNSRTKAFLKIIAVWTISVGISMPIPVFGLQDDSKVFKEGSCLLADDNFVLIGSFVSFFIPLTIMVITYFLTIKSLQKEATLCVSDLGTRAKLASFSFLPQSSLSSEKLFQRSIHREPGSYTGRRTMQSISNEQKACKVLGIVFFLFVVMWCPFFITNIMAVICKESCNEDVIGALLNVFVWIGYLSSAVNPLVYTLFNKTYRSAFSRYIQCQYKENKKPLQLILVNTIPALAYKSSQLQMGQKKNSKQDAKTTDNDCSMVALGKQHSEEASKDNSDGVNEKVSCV
structure (smiles),measurement,setting,value
O=C1[C@@H]2[C@H]3CC[C@H](C3)[C@@H]2C(=O)N1C[C@@H]1CCCC[C@H]1CN1CCN(c2nsc3ccccc23)CC1 [Lurasidone],reported affinity for 5-HT2A receptor,5-HT2A receptor,high affinity
same,"changes in weight, lipids, and measures of glucemic control",[1],Minimal changes
same,discontinuation rates due to adverse events,[1],6%
same,most frequently reported adverse events,[1],"nausea, headache, somnolence, and tremor"
same,effect on 5-HT1A receptor function,[2],partial agonist
same,Ki,"[3]; rat, read-out: Binding Affinities (Ki; nM) Norepinephrine α1",47.9 nM
same,binding affinity for α1 adrenoreceptor (in words),[3]; summary of Table 2,low or negligible binding affinity
same,mean change in weight and BMI as compared to other treatments,"[4]; short-term (6-week) study, LOCF endpoint, patients with schizophrenia",minimal increases
same,disturbances in lipids or glycemic control,[4]; short-term and long-term (6 and 12 months) studies,not associated with disturbances in lipids or glycemic control
same,Ki,"[5]; porcine, read-out: Binding Affinities (Ki; nM) Serotonin 5-HT2c",415 nM
same,binding affinity for serotonin 5-HT2C receptor (in words),[5]; summary of Table 2,low or negligible binding affinity
same,Ki,Dopamine D3 receptor,15.7 nM
same,"Adverse Events: Akathisia, incidence",[6]; Lurasidone 20-60 mg,13 (7.9%)
same,"Adverse Events: Dizziness, incidence",[6]; Lurasidone 20-60 mg,4 (2.4%)
same,"Adverse Events: Headache, incidence",[6]; Lurasidone 20-60 mg,23 (14.0%)
same,"Adverse Events: Insomnia, incidence",[6]; Lurasidone 20-60 mg,8 (4.9%)
same,"Adverse Events: Nausea, incidence",[6]; Lurasidone 20-60 mg,17 (10.4%)
same,"Adverse Events: Sedation, incidence",[6]; Lurasidone 20-60 mg,5 (3.0%)
same,"Adverse Events: Somnolence, incidence",[6]; Lurasidone 20-60 mg,7 (4.3%)
same,Cholesterol (mg/dL) median change (at LOCF endpoint),[6]; Lurasidone 20-60 mg,0.0 mg/dL
same,Glucose (mg/dL) median change (at LOCF endpoint),[6]; Lurasidone 20-60 mg,-1.0 mg/dL
same,Triglycerides (mg/dL) median change (at LOCF endpoint),[6]; Lurasidone 20-60 mg,+3.0 mg/dL
same,Weight (kg) mean change (at LOCF endpoint),[6]; Lurasidone 20-60 mg,+0.56 kg
same,"Adverse Events: Akathisia, incidence",[6]; [7],7.9%
same,"Adverse Events: Headache, incidence",[6]; [7],14.0%
same,"Adverse Events: Nausea, incidence",[6]; [7],10.4%
same,"Adverse Events: Akathisia, incidence",[6]; Lurasidone 80-120 mg,18 (10.8%)
same,"Adverse Events: Dizziness, incidence",[6]; Lurasidone 80-120 mg,10 (6.0%)
same,"Adverse Events: Headache, incidence",[6]; Lurasidone 80-120 mg,15 (9.0%)
same,"Adverse Events: Insomnia, incidence",[6]; Lurasidone 80-120 mg,11 (6.6%)
same,"Adverse Events: Nausea, incidence",[6]; Lurasidone 80-120 mg,17.4%
same,"Adverse Events: Sedation, incidence",[6]; Lurasidone 80-120 mg,12 (7.2%)
same,"Adverse Events: Somnolence, incidence",[6]; Lurasidone 80-120 mg,11 (6.6%)
same,Cholesterol (mg/dL) median change (at LOCF endpoint),[6]; Lurasidone 80-120 mg,-3.0 mg/dL
same,Glucose (mg/dL) median change (at LOCF endpoint),[6]; Lurasidone 80-120 mg,0.0 mg/dL
same,Triglycerides (mg/dL) median change (at LOCF endpoint),[6]; Lurasidone 80-120 mg,-2.0 mg/dL
same,Weight (kg) mean change (at LOCF endpoint),[6]; Lurasidone 80-120 mg,+0.02 kg
same,"Adverse Events: Akathisia, incidence",[6]; [8],10.8%
same,"Adverse Events: Headache, incidence",[6]; [8],9.0%
same,"Adverse Events: Nausea, incidence",[6]; [8],17.4%
same,discontinuation rates due to adverse events,[6]; lurasidone 20 to 60 mg/day,7%
same,discontinuation rates due to adverse events,[6]; lurasidone 80 to 120 mg/day,6%
same,"changes in weight, lipids and measures of glycemic control","[6]; monotherapy, 20-60 and 80-120 mg/day, 6 weeks",Minimal changes
same,reported affinity for dopamine D2 receptor,dopamine D2 receptor,high affinity

# From patent US20140350029A1 (DAINIPPON SUMITOMO PHARMA CO., LTD., priority 2011, published 2014)
